One test has as its target T1, Ubc3 (Homo sapiens, UniProt P49427).
T1 construct: purchased Boston Biochem
T1 sequence (P49427 1-236): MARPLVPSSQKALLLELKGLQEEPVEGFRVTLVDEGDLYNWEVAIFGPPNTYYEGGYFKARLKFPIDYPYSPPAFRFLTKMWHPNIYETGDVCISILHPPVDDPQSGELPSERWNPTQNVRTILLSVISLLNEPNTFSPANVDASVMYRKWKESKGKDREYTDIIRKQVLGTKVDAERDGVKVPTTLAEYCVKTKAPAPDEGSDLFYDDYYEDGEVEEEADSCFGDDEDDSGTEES
As to the kind of experiment: E2 ubiquitin charging (Ubc3~Ub conjugates). In kind it is biochemical. Particulars: 50 μM inhibitor. How it is done:
In vitro reconstituted assays were performed as previously described (Dorrello et al., “S6K1- and betaTRCP-mediated Degradation of PDCD4 Promotes Protein Translation and Cell Growth,” Science 314:467-471 (2006), which is hereby incorporated by reference in their entirety) with the exceptions of the use of (1) unlabeled proteins (wild-type and mutant Skp2 and Cks1, p27, Flag-βTrCP, and HA-PDCD4) generated by in vitro transcription-translation (TNT T7 Coupled Reticulocyte Lysate System, Promega); (2) chain elongation with non-methylated ubiquitin; and (3) immunoblotting to detect poly-ubiquitylation. The following reagents were obtained from Boston Biochem: UBE1, His-UbcH3, His-UbcH5c, Ubiquitin, and Ubiquitin Aldehyde. Additional reagents include CDK2/CyclinE1 (Sigma-Aldrich), S6K (Invitrogen), Okadaic acid (Sigma), and DMSO (Sigma-Aldrich). […] Reactions were stopped in nondenaturing 2× Sample Buffer, with the addition of 10% Beta-mercaptoethanol as indicated, and analyzed by Western blotting.

In the next test the target is T2, Skp2-p27 interaction (Homo sapiens, UniProt P61024+Q13309).
T2 construct: made in house; host or cells: cell-free: rabbit reticulocyte lysate (TNT T7 Coupled Reticulocyte Lysate System, Promega) from pcDNA3.1 plasmids
T2 sequence (Q13309 whole entry): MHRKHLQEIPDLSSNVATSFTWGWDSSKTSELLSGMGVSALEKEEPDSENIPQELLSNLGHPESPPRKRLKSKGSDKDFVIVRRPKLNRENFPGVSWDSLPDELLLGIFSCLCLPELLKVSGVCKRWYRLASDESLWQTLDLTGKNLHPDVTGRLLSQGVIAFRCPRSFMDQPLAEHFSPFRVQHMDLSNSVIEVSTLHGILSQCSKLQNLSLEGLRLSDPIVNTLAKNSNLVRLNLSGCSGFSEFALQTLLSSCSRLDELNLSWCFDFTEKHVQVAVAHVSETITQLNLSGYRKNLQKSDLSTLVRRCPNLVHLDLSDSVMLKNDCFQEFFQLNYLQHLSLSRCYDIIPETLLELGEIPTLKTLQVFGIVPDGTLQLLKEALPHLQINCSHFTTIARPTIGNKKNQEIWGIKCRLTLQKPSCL
T2 sequence (P61024 whole entry): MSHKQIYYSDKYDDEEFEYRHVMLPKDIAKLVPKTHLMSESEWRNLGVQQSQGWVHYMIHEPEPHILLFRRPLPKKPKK
T2 sequence (P63208 whole entry partner): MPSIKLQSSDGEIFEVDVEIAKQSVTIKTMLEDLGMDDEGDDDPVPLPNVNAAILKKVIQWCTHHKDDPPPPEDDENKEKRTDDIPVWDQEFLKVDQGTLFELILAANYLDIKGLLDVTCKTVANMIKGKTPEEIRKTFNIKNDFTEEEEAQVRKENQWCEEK
T2 sequence (Q13616 whole entry partner): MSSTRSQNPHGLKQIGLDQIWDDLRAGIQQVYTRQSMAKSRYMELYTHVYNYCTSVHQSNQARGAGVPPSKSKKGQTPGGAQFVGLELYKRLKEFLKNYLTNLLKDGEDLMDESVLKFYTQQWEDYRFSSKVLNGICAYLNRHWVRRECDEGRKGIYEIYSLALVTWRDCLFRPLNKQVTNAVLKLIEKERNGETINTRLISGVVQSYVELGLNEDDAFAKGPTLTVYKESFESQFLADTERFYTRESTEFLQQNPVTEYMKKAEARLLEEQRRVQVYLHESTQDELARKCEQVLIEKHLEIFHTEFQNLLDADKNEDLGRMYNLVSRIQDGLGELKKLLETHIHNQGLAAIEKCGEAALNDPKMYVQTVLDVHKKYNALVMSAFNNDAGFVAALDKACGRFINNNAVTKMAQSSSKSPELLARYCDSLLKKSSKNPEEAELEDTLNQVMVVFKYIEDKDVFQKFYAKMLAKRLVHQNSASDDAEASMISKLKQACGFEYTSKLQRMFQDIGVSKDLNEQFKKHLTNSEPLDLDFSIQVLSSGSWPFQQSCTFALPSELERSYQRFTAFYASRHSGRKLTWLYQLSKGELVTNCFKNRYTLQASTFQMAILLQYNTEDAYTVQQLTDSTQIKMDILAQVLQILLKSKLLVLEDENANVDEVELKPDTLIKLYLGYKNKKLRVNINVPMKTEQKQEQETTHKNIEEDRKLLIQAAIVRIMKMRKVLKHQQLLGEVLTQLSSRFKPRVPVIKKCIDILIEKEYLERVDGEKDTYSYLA
T2 sequence (P62877 whole entry partner): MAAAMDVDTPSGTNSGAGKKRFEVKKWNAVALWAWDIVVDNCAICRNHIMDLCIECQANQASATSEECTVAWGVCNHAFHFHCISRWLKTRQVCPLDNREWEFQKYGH
Nature of the test: p27 binding to HA-Skp2 (HA-immunoprecipitation). Particulars: for p27 binding to Skp2: 10 μM, HA-Skp2 and Cks1 pretreated before p27-pT187, without ubiquitylation. The procedure: In vitro ubiquitylation assays were incubated with anti-HA affinity matrix (Roche) in IP buffer (50 mM Tris pH 7.6, 150 mM NaCl, 0.1% NP40, and Roche Complete EDTA-free protease tablet) for 16 h at 4° C. Beads were washed 3× with IP buffer and eluted with 2×SDS Sample Buffer (Boston Bioproducts) and 10% Beta-mercaptoethanol. For binding without ubiquitylation, HA-Skp2 IVT (10 μl) and Cks1 IVT (10 μl) were preincubated with anti-HA affinity matrix in IP buffer for 2 hours, with the addition of p27 kinase reaction (10 μl) for another 16 h incubation at 4° C. All reactions were analyzed after SDS/PAGE by western blotting. Where indicated, Skp2 and Cks1 were pretreated with 10 μM inhibitors for 30 minutes. Kinase reactions were performed with p27 IVT (10 μl) and 0.5 μg/ul CyclinE/CDK2 in kinase buffer (50 mM Tris HCL pH 7.5, 10 mM MgCl2, 2 mM ATP, 2.5 μM Okadaic Acid, and 0.6 mM DTT) at 30° C. for 1 h.

In test [1] the test system is p27 in 501 Mel, SK-MEL-147, and SK-MEL-173. As to the kind of experiment: Immunoblot of steady state protein levels in metastatic melanoma cell lines. Format: cell-based, human. Particulars: 10 μM inhibitor; melanoma cells. The procedure: 501 Mel cells were also treated with MG-132 (a proteasome inhibitor) to confirm that p27 and p21 induction were responsive to known UPS inhibitors (FIG. 4A, right). […] Thus, treatment of cells with inhibitors targeting the Skp2-Cks1 interface induces protein levels of specific Skp2-Cks1 substrates.
Whole cell extracts were prepared and immunoblotted as previously described Dorrello et al., “S6K1- and betaTRCP-mediated Degradation of PDCD4 Promotes Protein Translation and Cell Growth,” Science 314:467-471 (2006), which is hereby incorporated by reference in its entirety. For knockdown of Skp2 or p27, shRNAs were induced with 2 ng/ml doxycycline for 48 hours, with the last 16 hours co-treated with 0.1% Vehicle or 10 μM inhibitors as indicated. For cycloheximide chase, cells were pretreated 16 h with 0.1% Vehicle or 10 μM inhibitors, followed by 20 ng/ml cycloheximide (Sigma) and whole cell extracts collected for each time point. […] Scanning densitometry was performed on immunoblots using Image J software. For cell cycle analysis, cells were treated with 0.1% Vehicle or 10 μM inhibitors for 16 h. 1×10^6 cells were fixed in 70% ethanol for 2 h, treated with 200 μg/ml RNase A (Invitrogen) for 30 minutes, and stained with 20 μg/ml Propidium Iodine (Sigma). All samples were assayed in triplicates. Signal was detected using the Becton Dickson LSRII flow cytometer and cell cycle profiles were analyzed with FloJo.
On the technique in general: In western blotting, separated proteins are transferred to a membrane and probed.

Take `O=C(O)COc1ccc(Br)cc1C=C1SC(=S)N(Cc2cccnc2)C1=O` [Compound C1]: the “E2 charging (Ubc3~Ub)” value on Ubc3 is recorded as “unaffected”. Further, the “p27 binding to Skp2” value on Skp2-p27 interaction is on record as “reduce p27 binding to Skp2”. Moreover, the “Amount of p27 interacting with Skp2” value on Skp2-p27 interaction (50 μM, HA-immunoprecipitates of ubiquitylation assays) is given as “reduced the amount of p27”. Also, the p27 protein induction entry in test [1] was “induce p27 protein”.
Regarding `COC(=O)C1=C(C)N(c2ccc(Br)cc2)C(=O)C1=Cc1ccccc1O` [Compound C2], the “E2 charging (Ubc3~Ub)” value on Ubc3 is reported as “unaffected”. Moreover, the “p27 binding to Skp2” value at Skp2-p27 interaction is recorded as “reduce p27 binding to Skp2”. For the same compound, in test [1], the p27 protein induction result is reported as “induce p27 protein”.
Consider `O=C(O)COc1ccc(C=C2SC(=O)N(CC(=O)c3ccc(Cl)cc3)C2=O)cc1` [Compound C16], for which the “E2 charging (Ubc3~Ub)” value on Ubc3 was “unaffected”. For the same compound, on Skp2-p27 interaction, the “p27 binding to Skp2” value is “reduce p27 binding to Skp2”. Further, the p27 protein induction entry in test [1] is listed as “induce p27 protein”.
With `O=C(NN=Cc1cc(Br)cc(Br)c1O)C(=Cc1ccccc1O)NC(=O)c1ccccc1` [Compound C20], the “E2 charging (Ubc3~Ub)” value on Ubc3 is reported as “unaffected”. The “p27 binding to Skp2” value on Skp2-p27 interaction is “reduce p27 binding to Skp2”. The p27 protein induction result in test [1] is listed as “induce p27 protein”.

These data come from US9261497B2, “Method of treating cancer with modulators of SCFSkp2” (New York University, priority 2012, dated 2016).
